Assay: Protein binding in human plasma
Format: ADME, cell-free
Conditions: read-out: PPB (converted)

SMILES: CCCCCCCCCC(=O)N[C@@H](Cc1c[nH]c2ccccc12)C(=O)N[C@H](CC(N)=O)C(=O)N[C@@H](CC(=O)O)C(=O)N[C@@H]1C(=O)NCC(=O)N[C@@H](CCCN)C(=O)N[C@@H](CC(=O)O)C(=O)N[C@H](C)C(=O)N[C@@H](CC(=O)O)C(=O)NCC(=O)N[C@H](CO)C(=O)N[C@@H]([C@H](C)CC(=O)O)C(=O)N[C@@H](CC(=O)c2ccccc2N)C(=O)O[C@@H]1C
- fraction unbound: 0.15
